For the assay, the target named is T1, Full-length USP19 (Homo sapiens, UniProt O94966).
T1 construct: Full-length USP19 was purchased from Boston Biochem (E-576); purchased Boston Biochem E-576
T1 sequence (O94966 1-1318): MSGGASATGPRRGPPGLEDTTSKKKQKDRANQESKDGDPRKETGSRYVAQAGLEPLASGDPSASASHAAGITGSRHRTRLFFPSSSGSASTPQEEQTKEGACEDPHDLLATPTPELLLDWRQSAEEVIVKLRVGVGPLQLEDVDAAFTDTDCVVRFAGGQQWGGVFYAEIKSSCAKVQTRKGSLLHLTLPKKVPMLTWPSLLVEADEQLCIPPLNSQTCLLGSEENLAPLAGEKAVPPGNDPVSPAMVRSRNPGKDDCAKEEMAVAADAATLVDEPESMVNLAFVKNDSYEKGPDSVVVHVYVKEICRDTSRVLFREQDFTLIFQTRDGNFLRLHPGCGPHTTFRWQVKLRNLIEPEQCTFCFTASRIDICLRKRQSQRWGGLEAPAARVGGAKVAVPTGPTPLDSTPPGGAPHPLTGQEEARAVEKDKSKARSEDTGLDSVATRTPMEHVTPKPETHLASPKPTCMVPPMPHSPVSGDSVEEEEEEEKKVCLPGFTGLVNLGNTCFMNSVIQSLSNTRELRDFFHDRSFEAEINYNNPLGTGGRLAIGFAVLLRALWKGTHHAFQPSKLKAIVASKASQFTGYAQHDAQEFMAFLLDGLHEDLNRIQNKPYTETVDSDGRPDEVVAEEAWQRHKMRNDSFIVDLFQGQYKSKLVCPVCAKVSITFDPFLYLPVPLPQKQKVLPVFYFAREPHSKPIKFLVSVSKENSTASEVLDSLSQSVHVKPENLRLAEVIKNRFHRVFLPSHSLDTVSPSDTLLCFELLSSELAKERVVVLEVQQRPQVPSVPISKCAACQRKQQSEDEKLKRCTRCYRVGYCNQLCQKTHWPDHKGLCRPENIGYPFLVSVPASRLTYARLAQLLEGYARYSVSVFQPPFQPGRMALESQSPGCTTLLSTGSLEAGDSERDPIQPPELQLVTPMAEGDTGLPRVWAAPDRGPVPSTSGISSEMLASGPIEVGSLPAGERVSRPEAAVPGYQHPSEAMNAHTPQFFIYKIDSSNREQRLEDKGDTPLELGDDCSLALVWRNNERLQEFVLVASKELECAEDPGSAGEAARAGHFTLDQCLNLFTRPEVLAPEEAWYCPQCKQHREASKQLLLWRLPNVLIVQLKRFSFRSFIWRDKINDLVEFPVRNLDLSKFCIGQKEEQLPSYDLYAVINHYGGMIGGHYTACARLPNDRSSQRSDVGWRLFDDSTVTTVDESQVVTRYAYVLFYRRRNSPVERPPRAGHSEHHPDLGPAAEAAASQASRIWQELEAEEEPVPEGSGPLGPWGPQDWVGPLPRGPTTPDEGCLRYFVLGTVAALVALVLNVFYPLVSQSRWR
Kind of assay: USP19 fluorescence polarisation (FP) homogeneous assay with Ubiquitin-Lys-TAMRA substrate. Type of assay: biochemical. The following applies: 2.5 nM USP19, 30 min pre-incubation, average of at least two duplicate experiments. As to the method:
Unless otherwise stated, all other reagents were purchased from Sigma. Enzymatic reactions were conducted in black flat bottom polystyrene 384-well plates (Nunc) and 30 μL total volume. […] Inhibitors were stored as 10 mM DMSO stocks in an inert environment (low humidity, dark, low oxygen, room temperature) using the Storage Pod System and serial dilutions were prepared in buffer just prior to the assay (from 200 μM to 2 μM, 8-18 data point curve).
Following incubation at RT for 30 min, the enzymatic reactions were initiated by dispensing the Ub substrate (500 nM, 10 μL). FP was measured every 15 min over a period of 90 min (within the linear range of the assay) using a Synergy 4 plate reader (BioTek) exciting at 530 nm and measuring the amount of parallel and perpendicular light at 575 nm. The FP signal was subsequently normalised to the no compound control.

The term IC50 denotes the concentration that gives 50% inhibition.

`O=C(N1CC[C@@](O)(Cn2cnc(-c3ccccc3)cc2=O)C2(CCCC2)C1)N1CCC[C@H]1c1ccccc1` [Example 213, 3-(((S)-10-Hydroxy-7-((S)-2-phenylpyrrolidine-1-carbonyl)-7-azaspiro[4.5]decan-10-yl)methyl)-6-phenylpyrimidin-4(3H)-one]: the IC50 was less than 0.5 µM.

Consider `C[C@H](CC(F)(F)F)C(=O)N1CCC(O)(Cn2ccc3nc(N4CCN(C)CC4)ncc3c2=O)C2(CCCC2)C1` (stereo partly drawn) [Example 61, 6-((10-Hydroxy-7-((R)-4,4,4-trifluoro-2-methylbutanoyl)-7-azaspiro[4.5]decan-10-yl)methyl)-2-(4-methylpiperazin-1-yl)pyrido[4,3-d]pyrimidin-5(6H)-one], for which the IC50 fell in the range of 0.5 to 5 µM.

Consider `O=C(NCc1ccc(F)cc1F)N1CC[C@@](O)(Cn2cnc(-c3ccccc3)cc2=O)C2(CCCC2)C1` [Example 303, (S)—N-(2,4-Difluorobenzyl)-10-hydroxy-10-((6-oxo-4-phenylpyrimidin-1(6H)-yl)methyl)-7-azaspiro[4.5]decane-7-carboxamide], for which the IC50 was less than 0.5 µM.

Regarding `O=C(N1CCC(O)(Cn2cnc(-c3ccccc3)cc2=O)C2(CCCCC2)C1)N1CCNC[C@H]1c1ccccc1` (stereo partly drawn) [Example 298, 3-((5-Hydroxy-2-((R)-2-phenylpiperazine-1-carbonyl)-2-azaspiro[5.5]undecan-5-yl)methyl)-6-phenylpyrimidin-4(3H)-one], the IC50 is less than 0.5 µM.

Consider `O=C(N1CC[C@@](O)(Cn2cnc(-c3cccs3)cc2=O)C2(CCCC2)C1)N1CCNC[C@H]1c1ccccc1` [Example 343, 3-(((S)-10-Hydroxy-7-((R)-2-phenylpiperazine-1-carbonyl)-7-azaspiro[4.5]decan-10-yl)methyl)-6-(thiophen-2-yl)pyri-midin-4(3H)-one], for which the IC50 is less than 0.5 µM.

`C[C@H](CC1CCCCC1)C(=O)N1CCC(O)(Cn2cnc3ccsc3c2=O)C2(CCCC2)C1` (stereo partly drawn) [Example 144, 3-((7-((R)-3-Cyclohexyl-2-methylpropanoyl)-10-hydroxy-7-azaspiro[4.5]decan-10-yl)methyl)thieno[3,2-d]pyrimidin-4(3H)-one]: the IC50 lay within 0.5 to 5 µM.

On to `CCC1CCN(CC2(O)CCN(C(=O)[C@H](C)CC(F)(F)F)CC23CCCC3)C(=O)C1` (stereo partly drawn) [Example 100, 4-Ethyl-1-((10-hydroxy-7-((R)-4,4,4-trifluoro-2-methylbutanoyl)-7-azaspiro[4.5]decan-10-yl)methyl)piperidin-2-one], for which the IC50 was in the range of 5 to 50 µM.

For `C[C@H](CC(F)(F)F)C(=O)N1CCC(O)(CN2C(=O)COCC23CC3)C2(CCCC2)C1` (stereo partly drawn) [Example 96, 4-((10-Hydroxy-7-((R)-4,4,4-trifluoro-2-methylbutanoyl)-7-azaspiro[4.5]decan-10-yl)methyl)-7-oxa-4-azaspiro[2.5]octan-5-one], the IC50 fell in the range of 50 to 250 µM.

In the case of `CN(C)C(=O)C1CN(C[C@@]2(O)CCN(C(=O)[C@H](CO)CC3CCCCC3)CC2(C)C)C(=O)CC1c1ccccc1` (stereo partly drawn) [Example 25, 1-(((R)-1-((S)-3-Cyclohexyl-2-(hydroxymethyl)propanoyl)-4-hydroxy-3,3-dimethylpiperidin-4-yl)methyl)-N,N-dimethyl-6-oxo-4-phenylpiperidine-3-carboxamide], the IC50 was in the range of 5 to 50 µM.

In the case of `O=C(NCc1ccccc1)N1CCC(O)(Cn2cnc(-c3ccccc3F)cc2=O)C2(CC2)C1` (centres unmarked) [Example 194, N-Benzyl-8-((4-(2-fluorophenyl)-6-oxopyrimidin-1(6H)-yl)methyl)-8-hydroxy-5-azaspiro[2.5]octane-5-carboxamide], the concentration for half-maximal inhibition (IC50) lay within 50 to 250 µM.

Regarding `C[C@H](CC1CCCCC1)C(=O)N1CCC(O)(Cn2cc(S(C)(=O)=O)c(-c3ccccc3)cc2=O)C2(CCCC2)C1` (stereo partly drawn) [Example 80, 1-((7-((R)-3-Cyclohexyl-2-methylpropanoyl)-10-hydroxy-7-azaspiro[4.5]decan-10-yl)methyl)-5-(methylsulfonyl)-4-phenylpyridin-2(1H)-one], the IC50 is less than 0.5 µM.

(Values after patent publication US20220033397A1, “PHARMACEUTICAL COMPOUNDS AND THEIR USE AS INHIBITORS OF UBIQUITIN SPECIFIC PROTEASE 19 (USP19)” (ALMAC DISCOVERY LIMITED, priority 2018, published 2022).)
